From the NIST ThermoML archive (doi:10.1021/je1009976)
Numbers after ± are expanded uncertainties.

Tests used:
[1] = xn = mol fraction of the nth substance listed; conditions: 101 kPa, Liquid, x2 = 0; for viscosity: Capillary tube (Ostwald / Ubbelohde) method; for mass density: Pycnometric method
[2] = 101 kPa, Liquid; for viscosity: Capillary tube (Ostwald / Ubbelohde) method; for mass density: Pycnometric method

Which results are given for `O` [water] + OCCOCCO?
viscosity ([1]; 303.15 K): 0.801 ± 0.4 mPa·s; viscosity ([1]; 308.15 K): 0.722 mPa·s; mass density ([1]; 308.15 K): 994.12 ± 0.39 kg/m3; viscosity ([1]; 313.15 K): 0.656 mPa·s; viscosity ([1]; 318.15 K): 0.598 mPa·s; mass density ([1]; 318.15 K): 990.3 ± 0.44 kg/m3; viscosity ([1]; 323.15 K): 0.549 mPa·s

What does the source list for `OCCOCCO` [diethylene glycol]?
viscosity ([2]; 303.15 K): 22.16 ± 0.46 mPa·s; mass density ([2]; 303.15 K): 1109.48 ± 0.75 kg/m3; viscosity ([2]; 308.15 K): 17.93 ± 0.44 mPa·s; mass density ([2]; 308.15 K): 1105.72 ± 0.75 kg/m3; viscosity ([2]; 313.15 K): 14.71 ± 0.43 mPa·s; mass density ([2]; 313.15 K): 1102.11 ± 0.76 kg/m3; viscosity ([2]; 318.15 K): 12.19 ± 0.42 mPa·s; mass density ([2]; 318.15 K): 1098.35 ± 0.76 kg/m3; viscosity ([2]; 323.15 K): 10.19 ± 0.41 mPa·s; mass density ([2]; 323.15 K): 1094.94 ± 0.75 kg/m3
